Numbered stars: 1 amine (or outer) side, 2 acyl side, 3 side chain; on linkers, the order of the positions; unused ones are H or OH. Bridge positions count the residues as written; N and C are the ends. Square brackets hold non-standard residues; d marks the D form. Peptide text beside a SMILES is read from it. * marks the point of attachment. NMeAbu(3,3-F2-piperidino) = CN[C@@H](CCN1CCCC(F)(F)C1)C(=O)O; hPhe(3-Cl-4-CF3) = N[C@@H](CCc1ccc(C(F)(F)F)c(Cl)c1)C(=O)O; X115 = O=C([C@H](CCc1ccc(S(F)(F)(F)(F)F)cc1)N[*:1])[*:2]; hPhe(3-F,4-CF3) = N[C@@H](CCc1ccc(C(F)(F)F)c(F)c1)C(=O)O; Pro(cis-4-Ph) = O=C(O)[C@@H]1C[C@H](c2ccccc2)CN1; NMePhe(3-Cl) = CN[C@@H](Cc1cccc(Cl)c1)C(=O)O; NMePhe(4-Cl) = CN[C@@H](Cc1ccc(Cl)cc1)C(=O)O; X51 = CN([C@@](C)(Cc1ccccc1)C(=O)[*:2])[*:1]; NMePhe(4-Me) = CN[C@@H](Cc1ccc(C)cc1)C(=O)O; NMeMet(O2) = CN[C@@H](CCS(C)(=O)=O)C(=O)O; NMePhe(2-F) = CN[C@@H](Cc1ccccc1F)C(=O)O; NMeGly(cPent) = CN[C@H](C(=O)O)C1CCCC1; Phe(3-I) = N[C@@H](Cc1cccc(I)c1)C(=O)O; NMeY = CN[C@@H](Cc1ccc(O)cc1)C(=O)O; Pip(4-oxo) = O=C1CCN[C@H](C(=O)O)C1; NMeCha = CN[C@@H](CC1CCCCC1)C(=O)O; NMeChg = CN[C@H](C(=O)O)C1CCCCC1; NMeF = CN[C@@H](Cc1ccccc1)C(=O)O; NMeT = CN[C@H](C(=O)O)[C@@H](C)O; NMeD = CN[C@@H](CC(=O)O)C(=O)O; NMeL = CN[C@@H](CC(C)C)C(=O)O; NMeNva = CCC[C@H](NC)C(=O)O; NMeV = CN[C@H](C(=O)O)C(C)C; d(β3hA) = C[C@@H](N)CC(=O)O; NMeA = CN[C@@H](C)C(=O)O; NMeAib = CNC(C)(C)C(=O)O; Nle = CCCC[C@H](N)C(=O)O; Piperidide = C1CCN(*)CC1; Ac5c = NC1(C(=O)O)CCCC1; Aze = O=C(O)[C@@H]1CCN1; NBuGly = CCCCNCC(=O)O; Sar = CNCC(=O)O
system: Human pancreatic cancer cell line AsPC-1 (G12D mutation Kras); test: AsPC-1 cell growth inhibition (AsPC-1 CGI); format: cell-based; settings: read-out: AsPC-1 cell growth inhibition, 50% growth inhibitory concentration (IC50 value); 96 hours, CellTiter-Glo, values classified in ranges
Method: Test compounds were serially dilated with dimethyl sulfoxide, and 200 nL was then dispensed to a U-bottom 96-well plate using Labcyte Echo. […] The cell suspension was dispensed to a. plate containing a test compound at 100 μL per well and incubated at 37° C. in a 5% carbon dioxide gas incubator. 96 hours later, 80 μL of CellTiter-Glo (Promega) was added to each well and fluorescence was measured.

| SMILES | IC50 |
| --- | --- |
| CC[C@H](C)[C@@H]1NC(=O)[C@H](CC(C)C)N(C)C(=O)C[C@@H](C(=O)N2CCCCC2)N(C)C(=O)[C@H](CC(C)C)NC(=O)C(C)(C)N(C)C(=O)[C@H](Cc2ccccc2)NC(=O)[C@H](Cc2cccc(I)c2)NC(=O)CN(C)C(=O)[C@H](Cc2ccc(C)cc2)N(C)C(=O)[C@@H]2CCN2C(=O)[C@H](C)N(C)C1=O [Compound 1015] ([NMeL]I[NMeA][Aze][NMePhe(4-Me)][Sar][Phe(3-I)]F[NMeAib]L[NMeD]-Piperidide; lactam N-11) | > 500 nM |
| CC[C@H](C)[C@@H]1NC(=O)[C@H](CC(C)C)N(C)C(=O)C[C@@H](C)NC(=O)[C@H](C(C)C)N(C)C(=O)C2(CCCC2)NC(=O)[C@@H]2CCCN2C(=O)[C@H](CCc2ccc(C(F)(F)F)c(Cl)c2)NC(=O)CN(C)C(=O)[C@H](CC2CCCCC2)N(C)C(=O)CN(C)C(=O)[C@@H]2CCN2C1=O [Compound 1020] (cyclo([Ac5c][NMeV][d(β3hA)][NMeL]I[Aze][Sar][NMeCha][Sar][hPhe(3-Cl-4-CF3)]P)) | > 500 nM |
| CC[C@H](C)[C@@H]1NC(=O)[C@H](CC(C)C)N(C)C(=O)C[C@@H](C)NC(=O)[C@H](CC(C)C)N(C)C(=O)C2(CCCC2)NC(=O)[C@@H]2CCCN2C(=O)[C@H](CCc2ccc(S(F)(F)(F)(F)F)cc2)NC(=O)CN(C)C(=O)[C@H](CC2CCCCC2)N(C)C(=O)CN(C)C(=O)CN(C)C1=O [Compound 1021] (cyclo([Ac5c][NMeL][d(β3hA)][NMeL]I[Sar][Sar][NMeCha][Sar][X115]P)) | > 500 nM |
| CCC[C@H]1C(=O)N(C)CC(=O)N[C@@H](CCc2ccc(C(F)(F)F)c(Cl)c2)C(=O)N2CCC[C@H]2C(=O)NC2(CCCC2)C(=O)N(C)[C@@H](C(C)C)C(=O)N(C)[C@H](C(=O)N2CCCCC2)CC(=O)N(C)[C@@H](CC(C)C)C(=O)N[C@@H]([C@@H](C)CC)C(=O)N(C)[C@@H](C)C(=O)N2CC[C@H]2C(=O)N1C [Compound 1027] ([NMeL]I[NMeA][Aze][NMeNva][Sar][hPhe(3-Cl-4-CF3)]P[Ac5c][NMeV][NMeD]-Piperidide; lactam N-11) | > 500 nM |
| CCCCN1CC(=O)N(C)[C@@H](CC2CCCCC2)C(=O)N(C)CC(=O)N[C@@H](CCc2ccc(C(F)(F)F)c(Cl)c2)C(=O)N2CCC[C@H]2C(=O)NC2(CCCC2)C(=O)N(C)[C@@H](C(C)C)C(=O)N[C@H](C)CC(=O)N(C)[C@@H](CC(C)C)C(=O)N[C@@H]([C@@H](C)CC)C(=O)N(C)CC1=O [Compound 1033] (cyclo([Ac5c][NMeV][d(β3hA)][NMeL]I[Sar][NBuGly][NMeCha][Sar][hPhe(3-Cl-4-CF3)]P)) | > 500 nM |
| CC[C@H](C)[C@@H]1NC(=O)[C@H](CC(C)C)N(C)C(=O)C[C@@H](C(=O)N2CCCCC2)N(C)C(=O)[C@H]([C@@H](C)O)N(C)C(=O)C2(CCCC2)NC(=O)[C@@H]2CCCN2C(=O)[C@H](CCc2ccc(C(F)(F)F)c(Cl)c2)NC(=O)CN(C)C(=O)[C@H](CC2CCCCC2)N(C)C(=O)CN(C)C(=O)CN(C)C1=O [Compound 1041] ([NMeL]I[Sar][Sar][NMeCha][Sar][hPhe(3-Cl-4-CF3)]P[Ac5c][NMeT][NMeD]-Piperidide; lactam N-11) | > 500 nM |
| CCCC[C@@H]1NC(=O)[C@H](Cc2ccccc2)NC(=O)CN(C)C(=O)[C@H](Cc2ccc(Cl)cc2)N(C)C(=O)CN(C)C(=O)CN(C)C(=O)[C@H]([C@@H](C)CC)NC(=O)[C@H](CC(C)C)N(C)C(=O)C[C@@H](C(=O)N2CCCCC2)N(C)C(=O)[C@H](CC(C)C)NC(=O)C(C)(C)N(C)C1=O [Compound 1043] ([NMeL]I[Sar][Sar][NMePhe(4-Cl)][Sar]F[Nle][NMeAib]L[NMeD]-Piperidide; lactam N-11) | > 500 nM |
| CCCC[C@@H]1NC(=O)[C@H](Cc2cccc(I)c2)NC(=O)CN(C)C(=O)[C@H](Cc2ccc(Cl)cc2)N(C)C(=O)CN(C)C(=O)CN(C)C(=O)[C@H]([C@@H](C)CC)NC(=O)[C@H](CC(C)C)N(C)C(=O)C[C@@H](C(=O)N2CCCCC2)N(C)C(=O)[C@H](CC(C)C)NC(=O)[C@H](Cc2cccc(Cl)c2)N(C)C1=O [Compound 1044] ([NMeL]I[Sar][Sar][NMePhe(4-Cl)][Sar][Phe(3-I)][Nle][NMePhe(3-Cl)]L[NMeD]-Piperidide; lactam N-11) | > 500 nM |
| CC[C@H](C)[C@@H]1NC(=O)[C@H](CC(C)C)N(C)C(=O)C[C@@H](C)NC(=O)[C@H](C(C)C)N(C)C(=O)C2(CCCC2)NC(=O)[C@@H]2CCCN2C(=O)[C@H](CCc2ccc(C(F)(F)F)c(Cl)c2)NC(=O)CN(C)C(=O)[C@H](CC2CCCCC2)N(C)C(=O)[C@@H]2CCCN2C(=O)CN(C)C1=O [Compound 1050] (cyclo([Ac5c][NMeV][d(β3hA)][NMeL]I[Sar]P[NMeCha][Sar][hPhe(3-Cl-4-CF3)]P)) | > 500 nM |
| CC[C@H](C)[C@@H]1NC(=O)[C@H](CC(C)C)N(C)C(=O)C[C@@H](C(=O)N2CCCCC2)N(C)C(=O)[C@H](C2CCCCC2)N(C)C(=O)C2(CCCC2)NC(=O)[C@@H]2C[C@H](c3ccccc3)CN2C(=O)[C@H](CCc2ccc(C(F)(F)F)c(Cl)c2)NC(=O)CN(C)C(=O)[C@H](CC2CCCCC2)N(C)C(=O)[C@@H]2CCN2C(=O)[C@H](C)N(C)C1=O [Compound 1053] ([NMeL]I[NMeA][Aze][NMeCha][Sar][hPhe(3-Cl-4-CF3)][Pro(cis-4-Ph)][Ac5c][NMeChg][NMeD]-Piperidide; lactam N-11) | > 500 nM |
| CCCC[C@@H]1NC(=O)[C@H](Cc2cccc(I)c2)NC(=O)CN(C)C(=O)[C@H](Cc2ccc(OC)cc2)N(C)C(=O)[C@@H]2CCN2C(=O)CN(C)C(=O)[C@H]([C@@H](C)CC)NC(=O)[C@H](CC(C)C)N(C)C(=O)C[C@@H](C(=O)N2CCCCC2)N(C)C(=O)[C@H](CC(C)C)NC(=O)[C@](C)(Cc2ccccc2)N(C)C1=O [Compound 1058] ([NMeL]I[Sar][Aze][NMeY](Me)[Sar][Phe(3-I)][Nle][X51]L[NMeD]-Piperidide; lactam N-11) | > 500 nM |
| CC[C@H](C)[C@@H]1NC(=O)[C@H](CC(C)C)N(C)C(=O)C[C@@H](C(=O)N2CCCCC2)N(C)C(=O)[C@H](CC(C)C)N(C)C(=O)C2(CCCC2)NC(=O)[C@@H]2CCCN2C(=O)[C@H](CCc2ccc(C(F)(F)F)c(F)c2)NC(=O)CN(C)C(=O)[C@H](Cc2ccc(Cl)cc2)N(C)C(=O)CN(C)C(=O)CN(C)C1=O [Compound 1061] ([NMeL]I[Sar][Sar][NMePhe(4-Cl)][Sar][hPhe(3-F,4-CF3)]P[Ac5c][NMeL][NMeD]-Piperidide; lactam N-11) | > 500 nM |
| CC[C@H](C)[C@@H]1NC(=O)[C@H](CC(C)C)N(C)C(=O)C[C@@H](C(=O)N(C)C)N(C)C(=O)[C@H](C2CCCC2)N(C)C(=O)C2(CCCC2)NC(=O)[C@H](Cc2ccc(Cl)cc2)N(C)C(=O)[C@H](CCc2ccc(C(F)(F)F)c(Cl)c2)NC(=O)CN(C)C(=O)[C@H](CC2CCCCC2)N(C)C(=O)[C@@H]2CCN2C(=O)[C@H](C)N(C)C1=O [Compound 1063] ([NMeL]I[NMeA][Aze][NMeCha][Sar][hPhe(3-Cl-4-CF3)][NMePhe(4-Cl)][Ac5c][NMeGly(cPent)][NMeD]-NMe2; lactam N-11) | > 500 nM |
| CC[C@H](C)[C@@H]1NC(=O)[C@H](C)N(C)C(=O)C[C@@H](C)NC(=O)[C@H](C2CCCC2)N(C)C(=O)C2(CCCC2)NC(=O)[C@@H]2CCCN2C(=O)[C@H](CCc2ccc(C(F)(F)F)c(Cl)c2)NC(=O)CN(C)C(=O)[C@H](Cc2ccccc2F)N(C)C(=O)[C@@H]2CCCN2C(=O)CN(C)C1=O [Compound 1077] (cyclo([Ac5c][NMeGly(cPent)][d(β3hA)][NMeA]I[Sar]P[NMePhe(2-F)][Sar][hPhe(3-Cl-4-CF3)]P)) | > 500 nM |
| CC[C@H](C)[C@@H]1NC(=O)[C@H](C)N(C)C(=O)C[C@@H](C)NC(=O)[C@H](C(C)C)N(C)C(=O)[C@H](Cc2ccccc2)N(C)C(=O)[C@H](CC(C)C)N(C)C(=O)[C@H](CCc2ccc(C(F)(F)F)c(Cl)c2)NC(=O)CN(C)C(=O)[C@H](Cc2ccc(Cl)cc2)N(C)C(=O)CN(C)C(=O)CN(C)C1=O [Compound 1079] (cyclo(I[Sar][Sar][NMePhe(4-Cl)][Sar][hPhe(3-Cl-4-CF3)][NMeL][NMeF][NMeV][d(β3hA)][NMeA])) | > 500 nM |
| CC[C@H](C)[C@@H]1NC(=O)[C@H](CC(C)C)N(C)C(=O)C[C@@H](C(=O)N(C)C)N(C)C(=O)[C@H](C2CCCC2)N(C)C(=O)[C@H](C)NC(=O)[C@H](CCN2CCCC(F)(F)C2)N(C)C(=O)[C@H](CCc2ccc(C(F)(F)F)c(Cl)c2)NC(=O)CN(C)C(=O)[C@H](CC2CCCCC2)N(C)C(=O)[C@@H]2CCN2C(=O)[C@H](C)N(C)C1=O [Compound 1081] ([NMeL]I[NMeA][Aze][NMeCha][Sar][hPhe(3-Cl-4-CF3)][NMeAbu(3,3-F2-piperidino)]A[NMeGly(cPent)][NMeD]-NMe2; lactam N-11) | > 500 nM |
| CC[C@H](C)[C@@H]1NC(=O)[C@H](CC(C)C)N(C)C(=O)C[C@@H](C(=O)N2CCCCC2)N(C)C(=O)[C@H](C2CCCCC2)N(C)C(=O)C2(CCCC2)NC(=O)[C@@H]2CC(=O)CCN2C(=O)[C@H](CCc2ccc(C(F)(F)F)c(Cl)c2)NC(=O)CN(C)C(=O)[C@H](CC2CCCCC2)N(C)C(=O)CN(C)C(=O)CN(C)C1=O [Compound 1089] ([NMeL]I[Sar][Sar][NMeCha][Sar][hPhe(3-Cl-4-CF3)][Pip(4-oxo)][Ac5c][NMeChg][NMeD]-Piperidide; lactam N-11) | > 500 nM |
| CC[C@H](C)[C@@H]1NC(=O)[C@H](CC(C)C)N(C)C(=O)C[C@@H](C(=O)N2CCCCC2)N(C)C(=O)[C@H](C2CCCCC2)N(C)C(=O)C2(CCCC2)NC(=O)[C@@H]2CCCN2C(=O)[C@H](CCc2ccc(C(F)(F)F)c(Cl)c2)NC(=O)CN(C)C(=O)[C@H](CCS(C)(=O)=O)N(C)C(=O)CN(C)C(=O)CN(C)C1=O [Compound 1094] ([NMeL]I[Sar][Sar][NMeMet(O2)][Sar][hPhe(3-Cl-4-CF3)]P[Ac5c][NMeChg][NMeD]-Piperidide; lactam N-11) | > 500 nM |

Source: patent US20240148821A1, “PHARMACEUTICAL USE OF CYCLIC PEPTIDE COMPOUND” (CHUGAI SEIYAKU KABUSHIKI KAISHA, priority 2021, published 2024)
